The results in this text go back to PMC7158045 (BMC Plant Biology, 2020).

Experiment in all cases: biochemical
One test deals with T1, ZmDRIK1-R187-P492 (Zea mays, UniProt C0P4K9).
T1 construct: kinase domain, R187-P492
T1 sequence (C0P4K9 1-514): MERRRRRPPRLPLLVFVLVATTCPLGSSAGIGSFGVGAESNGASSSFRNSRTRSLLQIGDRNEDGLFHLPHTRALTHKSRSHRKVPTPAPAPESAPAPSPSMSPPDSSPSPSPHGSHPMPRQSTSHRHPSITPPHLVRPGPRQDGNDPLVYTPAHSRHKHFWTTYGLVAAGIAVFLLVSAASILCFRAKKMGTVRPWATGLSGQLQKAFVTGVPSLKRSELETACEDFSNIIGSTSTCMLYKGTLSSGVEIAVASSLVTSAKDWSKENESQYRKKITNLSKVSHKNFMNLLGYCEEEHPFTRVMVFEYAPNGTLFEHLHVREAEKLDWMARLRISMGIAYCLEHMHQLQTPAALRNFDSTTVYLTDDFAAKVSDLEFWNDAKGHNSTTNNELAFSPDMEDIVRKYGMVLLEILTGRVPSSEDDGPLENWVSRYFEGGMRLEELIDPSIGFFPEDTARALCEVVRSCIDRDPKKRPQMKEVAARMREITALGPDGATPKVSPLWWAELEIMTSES
The note with it: read-out: dTm B, DSF, Boltzmann fit, 0.1% DMSO.

Another test concerns the target T2, ZmDRIK1-K217-S514 (Zea mays, UniProt C0P4K9).
T2 construct: kinase domain, K217-S514
T2 sequence (C0P4K9 1-514): T1 sequence (C0P4K9 1-514)
As to conditions: read-out: dTm B, sheet ZmDRIK1-K217-S514;; DSF, Boltzmann fit, 0.1% DMSO.

Test [1] has as its target T3, ZmDRIK1 (DROUGHT RESPONSIVE INACTIVE KINASE 1), kinase domain (Zea mays, UniProt C0P4K9).
T3 construct: gene ZEAMMB73_Zm00001d028770; ZmDRIK1-KD R187-S514 (kinase domain)
T3 sequence (C0P4K9 187-514): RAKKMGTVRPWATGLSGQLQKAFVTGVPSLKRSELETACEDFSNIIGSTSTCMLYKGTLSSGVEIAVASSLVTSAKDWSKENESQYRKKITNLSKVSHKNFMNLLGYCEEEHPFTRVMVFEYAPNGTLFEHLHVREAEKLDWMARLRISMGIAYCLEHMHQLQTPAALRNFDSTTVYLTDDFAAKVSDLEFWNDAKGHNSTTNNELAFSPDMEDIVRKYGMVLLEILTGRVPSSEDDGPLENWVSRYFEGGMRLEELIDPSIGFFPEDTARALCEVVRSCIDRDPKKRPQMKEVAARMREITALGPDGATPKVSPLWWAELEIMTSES
As to conditions: read-out: dTm B, sheet ZmDRIK1-R187-S514;; DSF, Boltzmann fit, 0.1% DMSO.

The next test addresses T4, ZmDRIK1-K217-P492 (Zea mays, UniProt C0P4K9).
T4 construct: kinase domain, K217-P492
T4 sequence (C0P4K9 1-514): T1 sequence (C0P4K9 1-514)
The note with it: read-out: dTm B, sheet ZmDRIK1-K217-P492;; DSF, Boltzmann fit, 0.1% DMSO.

Structures are written as SMILES. Counter-ions that a name gives are not always drawn.

For `O=C1NC(=O)/C(=C/c2ccc3nccc(-c4ccncc4)c3c2)S1` [GSK1059615], the ΔTm at 10 µM at ZmDRIK1-R187-P492 is -0.283 °C; at ZmDRIK1-K217-S514, -0.279 °C; in test [1] it was -0.862 °C; at ZmDRIK1-K217-P492, -0.796 °C.
As to `Cc1ccc(NC(=O)c2ccc(CN3CCN(C)CC3)cc2)cc1Nc1nc(-c2cccnc2)cs1` [Masitinib (AB1010)], the ΔTm at 10 µM is -0.246 °C at ZmDRIK1-R187-P492, -0.217 °C on ZmDRIK1-K217-S514, -0.818 °C in test [1] and -0.773 °C at ZmDRIK1-K217-P492.
For the molecule `C=CCc1ccc(O)c(-c2ccc(O)c(CC=C)c2)c1` [Honokiol], the ΔTm at 10 µM on ZmDRIK1-R187-P492 was -0.457 °C; on ZmDRIK1-K217-S514, -0.593 °C; in test [1] it was -0.751 °C; at ZmDRIK1-K217-P492 it was -1.49 °C.
In the case of `CN1CCCN(C(=O)c2cccc(-c3ccc(/C=C4/C(=O)Nc5ccc(Cl)cc54)o3)c2)CC1` [CX-6258 HCl], the ΔTm at 10 µM on ZmDRIK1-R187-P492 was -0.49 °C; on ZmDRIK1-K217-S514, -0.341 °C; in test [1] it was -1.14 °C; at ZmDRIK1-K217-P492, -1.21 °C.
In the same order, the values of `OCCn1cc(-c2cnc3nnn(Cc4ccc5ncccc5c4)c3n2)cn1` [PF-04217903] are -0.0503 °C, -0.0615 °C, -0.576 °C and -0.909 °C.
Consider `CC(C)N(CCC(=O)c1ccc2ccccc2c1)Cc1ccccc1` [ZM 39923 HCl], for which the ΔTm at 10 µM is -0.636 °C on ZmDRIK1-R187-P492, -0.827 °C at ZmDRIK1-K217-S514, -1.58 °C in test [1] and -2.03 °C at ZmDRIK1-K217-P492.
In the same order, the values of `N#Cc1c(O)c2c(-c3ccc(-c4ccccc4O)cc3)csc2[nH]c1=O` [A-769662] are -0.292 °C, -0.453 °C, -1.11 °C and -1.24 °C.
As to `CNC(=O)c1ccccc1Nc1nc(Nc2ccc(N3CCOCC3)cc2OC)ncc1Cl` [TAE226 (NVP-TAE226)], the ΔTm at 10 µM on ZmDRIK1-R187-P492 is -0.231 °C; at ZmDRIK1-K217-S514, -0.321 °C; in test [1], -0.781 °C; on ZmDRIK1-K217-P492, -0.725 °C.
In the same order, the values of `Cc1cn(-c2cc(NC(=O)c3ccc(C)c(Nc4nccc(-c5cccnc5)n4)c3)cc(C(F)(F)F)c2)cn1` [Nilotinib (AMN-107)] are -5.14 °C, -2.84 °C, -19.8 °C and -9.25 °C.
The corresponding values for `CCN1CCN(Cc2ccc(-c3cc4c(N[C@H](C)c5ccccc5)ncnc4[nH]3)cc2)CC1` [AEE788 (NVP-AEE788)] are -0.159 °C, -0.297 °C, -0.878 °C and -0.494 °C.
In the same order, the values of `COCCOc1ccc2c(c1)ncn2-c1ccc2cccc(N3CCC(N)CC3)c2n1` [CP-673451] are -0.00299 °C, 0.216 °C, -0.398 °C and 0.203 °C.
Consider `Cc1cnc(Nc2ccc(N3CCN(C)CC3)cc2)nc1Nc1cccc(S(=O)(=O)NC(C)(C)C)c1` [TG101209], for which the ΔTm at 10 µM at ZmDRIK1-R187-P492 was -0.311 °C; on ZmDRIK1-K217-S514, -0.317 °C; in test [1] it was -0.897 °C; at ZmDRIK1-K217-P492 it was -0.984 °C.
The corresponding values for `Cc1ccc2nc(NCCN)c3ncc(C)n3c2c1` [BMS-345541] are -0.153 °C, -0.486 °C, -0.926 °C and -0.0998 °C.
The corresponding values for `Nc1nc(Nc2ccc(S(N)(=O)=O)cc2)nn1C(=O)c1c(F)cccc1F` [JNJ-7706621] are -0.0807 °C, -0.319 °C, -0.794 °C and -0.924 °C.
As for `CNc1nc(-c2ccc3c(N)n[nH]c3c2)cc(N2C[C@@H](C(=O)NC3CCCCC3)CC[C@H]2C)n1` [GSK2334470], the ΔTm at 10 µM was -0.4 °C on ZmDRIK1-R187-P492, -0.431 °C at ZmDRIK1-K217-S514, -0.8 °C in test [1] and -0.636 °C on ZmDRIK1-K217-P492.
